Data from publication PMC9977294, “A parasitic fungus employs mutated eIF4A to survive on rocaglate-synthesizing Aglaia plants” (eLife, 2023).
Values joined by “and” are separate entries in the source; they are usually repeats but may differ in a detail not shown here. Equal entries are not always repeated. Where two headings read alike, the source gives them in different places.

What was measured:
C. sativus leaves = assay: Morphology of cucumber leaves sprayed with aglafoline; format: in vivo, Cucumis sativus; details: aglafoline 1 µM in water sprayed, 3 days
Description: Figure 4. Phenotypic comparison of the C. orbiculare eIF4A^WT and eIF4A^His153Gly strains during infection in the presence of rocaglate. (A) Workflow for monitoring the biomass of C. orbiculare eIF4A^WT or eIF4A^His153Gly strains on cucumber leaves under treatment with aglafoline. (B) Comparison of in planta fungal biomass of C. orbiculare eIF4A^WT or eIF4A^His153Gly strains with or without treatment with 1 µM aglafoline. Relative expression levels of the C. orbiculare 60 S ribosomal protein L5 gene (GenBank: Cob_v012718) normalized to that of a cucumber cyclophilin gene (GenBank: AY942800.1) were determined by RT–qPCR at 3 dpi (n = 8). The relative fungal biomasses of C. orbiculare were normalized to those of eIF4A^WT without aglafoline. Significance was calculated by Student’s t-test (two-tailed). […] Figure 4—source data 1. Files for the primary data corresponding to Figure 4B. Figure 4—figure supplement 1. Characterization of cucumber leaves treated with aglafoline. (A) C. sativus leaves were sprayed with DMSO or aglafoline (1 µM) in water and incubated for 3 days using the same method as C. orbiculare inoculation. Figure 4—figure supplement 1—source data 1. Files for the full and unedited pictures corresponding to Figure 4—figure supplement 1A. [drawing 12]

[1] = system: Ophiocordyceps sp. BRM1 eIF4A WT; assay: In vitro translation in RRL with complex-preformed mRNAs; format: biochemical; details: reporter mRNA with polypurine motifs preincubated with eIF4A and 9.1 µM RocA, free RocA removed; Figure 3B
Description: (§1) The DNA fragments PCR-amplified from psiCHECK2−7×AGAGAG motifs or psiCHECK2-CAA repeats ([Iwasaki et al., 2016]) were used as a template for in vitro transcription with a T7-Scribe Standard RNA IVT Kit ([…]). RNA was capped and poly(A) tailed with a ScriptCap m^7G Capping System, a ScriptCap 2′-O-Methyltransferase Kit, and an A-Plus Poly(A) Polymerase Tailing Kit ([…]).
(§2) Then, 4 µl of complex-preformed mRNA was incubated with 50% RRL (Promega) in a 10 µl reaction volume for 1 hr at 30°C, according to the manufacturer’s instructions. The fluorescence signal was detected using the Renilla-Glo Luciferase Assay System (Promega) and measured with the GloMax Navigator System (Promega). In the control experiments, instead of recombinant eIF4A proteins, storage buffer was used. Moreover, recombinant eIF4A proteins were added to the G-25 flowthrough solution in place of the storage buffer.

[2] = system: Ophiocordyceps sp. BRM1 eIF4A Gly172His; assay: as above; format: biochemical; details: reporter mRNA with polypurine motifs preincubated with eIF4A and 9.1 µM RocA, free RocA removed; Figure 3B
Description: as §1, §2

[3] = target: T1, O. sinensis eIF4A WT His154 (Ophiocordyceps sinensis, UniProt A0A8H4LTQ8); assay: Fluorescence polarization assay, FAM-labeled [AG]10 RNA and recombinant eIF4A; format: binding; details: for Kd: [AG]10 10 nM, compound 50 µM, read-out: Kd between eIF4A protein and RNA
T1 sequence (A0A8H4LTQ8 1-397): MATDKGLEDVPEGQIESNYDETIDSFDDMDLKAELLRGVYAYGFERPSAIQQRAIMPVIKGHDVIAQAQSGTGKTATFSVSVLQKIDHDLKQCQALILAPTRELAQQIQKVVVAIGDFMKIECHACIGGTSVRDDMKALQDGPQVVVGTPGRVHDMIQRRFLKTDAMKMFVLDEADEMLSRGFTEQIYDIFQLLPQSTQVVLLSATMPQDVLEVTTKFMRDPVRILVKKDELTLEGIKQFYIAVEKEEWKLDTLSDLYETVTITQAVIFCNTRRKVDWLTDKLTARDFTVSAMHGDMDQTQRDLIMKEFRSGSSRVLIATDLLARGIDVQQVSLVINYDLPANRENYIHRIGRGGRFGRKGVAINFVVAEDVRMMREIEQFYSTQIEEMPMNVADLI

[4] = [AG]10, ADP + Pi, RocA 50 µM, protein 0.05 μM
[5] = [AG]10, ADP + Pi, RocA 50 µM, protein 0.075 μM
[6] = [AG]10, ADP + Pi, RocA 50 µM, protein 0.1 μM
[7] = [AG]10, ADP + Pi, RocA 50 µM, protein 0.5 μM
[8] = [AG]10, ADP + Pi, RocA 50 µM, protein 0.75 μM
[9] = [AG]10, ADP + Pi, RocA 50 µM, protein 1 μM
[10] = [AG]10, ADP + Pi, RocA 50 µM, protein 5 μM
[11] = [AG]10, ADP + Pi, RocA 50 µM, protein 7.5 μM
[12] = [AG]10, ADP + Pi, RocA 50 µM, protein 10 μM
[13] = [AG]10, ADP + Pi, RocA 50 µM, protein 25 μM
[14] = [AG]10, ADP + Pi, RocA 50 µM, protein 50 μM
[15] = [AG]10 RNA, AMP-PNP, RocA, protein concentration 0.01 μM
[16] = [AG]10 RNA, AMP-PNP, RocA, protein concentration 0.05 μM
[17] = [AG]10 RNA, AMP-PNP, RocA, protein concentration 0.075 μM
[18] = [AG]10 RNA, AMP-PNP, RocA, protein concentration 0.1 μM
[19] = [AG]10 RNA, AMP-PNP, RocA, protein concentration 0.5 μM
[20] = [AG]10 RNA, AMP-PNP, RocA, protein concentration 0.75 μM
[21] = [AG]10 RNA, AMP-PNP, RocA, protein concentration 1 μM
[22] = [AG]10 RNA, AMP-PNP, RocA, protein concentration 5 μM
[23] = [AG]10 RNA, AMP-PNP, RocA, protein concentration 7.5 μM
[24] = [AG]10 RNA, AMP-PNP, RocA, protein concentration 10 μM
[25] = [AG]10 RNA, AMP-PNP, RocA, protein concentration 25 μM
[26] = [AG]10 RNA, AMP-PNP, RocA, protein concentration 50 μM

Question: For `COC(=O)[C@H]1[C@@H](O)[C@@]2(O)c3c(OC)cc(OC)cc3O[C@@]2(c2ccc(OC)cc2)[C@@H]1c1ccccc1` [Aglafoline, methyl rocaglate], which “morphological alteration of cucumber leaves” value (C. sativus leaves) is on record?
Answer: The value was “no morphological alteration of the leaves was observed”.

Question: For `COc1ccc([C@@]23Oc4cc(OC)cc(OC)c4[C@]2(O)[C@H](O)[C@H](C(=O)N(C)C)[C@H]3c2ccccc2)cc1` [RocA, rocaglamide A], which “translation of complex-preformed mRNA in RRL” value [1] is on record?
Answer: Its value is “could not alter translation”.

Question: What about the “translation of complex-preformed mRNA in RRL” value [2] of the same molecule?
Answer: Its value is “could act as a translation repressor”.

Question: What about the Kd ([3]; ADP + Pi (1 mM each)) of the same molecule?
Answer: Its Kd is ~0.11 µM and 0.11 µM.

Question: What about the Kd ([3]; AMP-PNP 1 mM) of the same molecule?
Answer: The Kd was 0.09 ± 0.014 µM.

Question: And the “fluorescence polarization, replicates” value ([3]; [AG]10, ADP + Pi, RocA 50 µM, protein 0.01 μM)?
Answer: The value was 0.1995.

Question: What about the “fluorescence polarization, Mean” value [3, 4] of the same molecule?
Answer: The value was 0.4699.

Question: What about the “fluorescence polarization, replicates” value [3, 4] of the same molecule?
Answer: Its value is 0.5109 and 0.4536.

Question: And the “fluorescence polarization, Mean” value [3, 5]?
Answer: Its value is 0.6066.

Question: And the “fluorescence polarization, replicates” value [3, 5]?
Answer: The value was 0.6585.

Question: What about the “fluorescence polarization, Mean” value [3, 6] of the same molecule?
Answer: Its value is 0.7049.

Question: What about the “fluorescence polarization, replicates” value [3, 6] of the same molecule?
Answer: Its value is 0.7732 and 0.6667.

Question: What about the “fluorescence polarization, Mean” value [3, 7] of the same molecule?
Answer: The value was 1.713.

Question: And the “fluorescence polarization, replicates” value [3, 7]?
Answer: Its value is 1.781 and 1.675 and 1.683.

Question: What about the “fluorescence polarization, Mean” value [3, 8] of the same molecule?
Answer: The value was 1.757.

Question: And the “fluorescence polarization, replicates” value [3, 8]?
Answer: The value was 1.724 (2×) and 1.8224.

Question: And the “fluorescence polarization, Mean” value [3, 9]?
Answer: Its value is 1.82.

Question: What about the “fluorescence polarization, replicates” value [3, 9] of the same molecule?
Answer: Its value is 1.8224 (2×) and 1.814.

Question: What about the “fluorescence polarization, Mean” value [3, 10] of the same molecule?
Answer: Its value is 1.888.

Question: What about the “fluorescence polarization, replicates” value [3, 10] of the same molecule?
Answer: Its value is 1.913 and 1.872 and 1.88.

Question: And the “fluorescence polarization, Mean” value [3, 11]?
Answer: Its value is 1.883.

Question: What about the “fluorescence polarization, replicates” value [3, 11] of the same molecule?
Answer: Its value is 1.855 and 1.904 and 1.888.

Question: What about the “fluorescence polarization, Mean” value [3, 12] of the same molecule?
Answer: The value was 1.893.

Question: What about the “fluorescence polarization, replicates” value [3, 12] of the same molecule?
Answer: The value was 1.921 and 1.896 and 1.863.

Question: And the “fluorescence polarization, Mean” value [3, 13]?
Answer: The value was 1.861.

Question: And the “fluorescence polarization, replicates” value [3, 13]?
Answer: The value was 1.863 and 1.913 and 1.806.

Question: And the “fluorescence polarization, Mean” value [3, 14]?
Answer: The value was 1.801.

Question: And the “fluorescence polarization, replicates” value [3, 14]?
Answer: Its value is 1.814 and 1.798 and 1.79.

Question: And the “Fluorescence polarization, Replicate 1-3” value [3, 15]?
Answer: The value was 0.1557 and 0.

Question: What about the “fluorescence polarization, Mean” value [3, 15] of the same molecule?
Answer: Its value is 0.09016.

Question: And the “Fluorescence polarization, Replicate 1-3” value [3, 16]?
Answer: Its value is 0.5246 (2×) and 0.418.

Question: What about the “fluorescence polarization, Mean” value [3, 16] of the same molecule?
Answer: The value was 0.4891.

Question: What about the “Fluorescence polarization, Replicate 1-3” value [3, 17] of the same molecule?
Answer: Its value is 0.5328 and 0.6803.

Question: And the “fluorescence polarization, Mean” value [3, 17]?
Answer: The value was 0.6175.

Question: What about the “Fluorescence polarization, Replicate 1-3” value [3, 18] of the same molecule?
Answer: Its value is 0.8689 and 0.8033 and 0.7049.

Question: What about the “fluorescence polarization, Mean” value [3, 18] of the same molecule?
Answer: The value was 0.7923.

Question: What about the “Fluorescence polarization, Replicate 1-3” value [3, 19] of the same molecule?
Answer: The value was 1.713 (2×) and 1.631.

Question: What about the “fluorescence polarization, Mean” value [3, 19] of the same molecule?
Answer: Its value is 1.686.

Question: What about the “Fluorescence polarization, Replicate 1-3” value [3, 20] of the same molecule?
Answer: Its value is 1.795 and 1.7459 and 1.77.

Question: And the “fluorescence polarization, Mean” value [3, 20]?
Answer: Its value is 1.77.

Question: What about the “Fluorescence polarization, Replicate 1-3” value [3, 21] of the same molecule?
Answer: The value was 1.861 and 1.836 and 1.779.

Question: And the “fluorescence polarization, Mean” value [3, 21]?
Answer: The value was 1.825.

Question: What about the “Fluorescence polarization, Replicate 1-3” value [3, 22] of the same molecule?
Answer: Its value is 1.787 and 1.828 and 1.811.

Question: What about the “fluorescence polarization, Mean” value [3, 22] of the same molecule?
Answer: Its value is 1.809.

Question: What about the “Fluorescence polarization, Replicate 1-3” value [3, 23] of the same molecule?
Answer: Its value is 1.869 and 1.877 and 1.844.

Question: What about the “fluorescence polarization, Mean” value [3, 23] of the same molecule?
Answer: The value was 1.863.

Question: And the “Fluorescence polarization, Replicate 1-3” value [3, 24]?
Answer: The value was 1.836 and 1.7459 and 1.795.

Question: What about the “fluorescence polarization, Mean” value [3, 24] of the same molecule?
Answer: The value was 1.792.

Question: What about the “Fluorescence polarization, Replicate 1-3” value [3, 25] of the same molecule?
Answer: Its value is 1.902 and 1.77 and 1.779.

Question: What about the “fluorescence polarization, Mean” value [3, 25] of the same molecule?
Answer: Its value is 1.817.

Question: And the “Fluorescence polarization, Replicate 1-3” value [3, 26]?
Answer: The value was 1.852 and 1.787 and 1.77.

Question: And the “fluorescence polarization, Mean” value [3, 26]?
Answer: Its value is 1.803.
